The results in this text go back to ChEMBL document CHEMBL1201862, “PubChem BioAssay data set” (2004).

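The compound was tested at five concentrations on cells cultured in 96-well plates, with a 48-hour exposure period. At the GI50, growth is halved.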 Activity calls are given as the source filed them. Cut-off read from the data, not from the text of the source: active = GI50 up to about 1.1 µM and inactive = higher.

Among the test systems are A498; ACHN; EKVX; HCT-116; HCT-15; HT-29; Hs-578T; IGROV-1; MOLT-4; NCI-H23; NCI-H460; NCI/ADR-RES; OVCAR-3; OVCAR-5; RPMI-8226; SF-295; SK-OV-3; TK-10; UACC-62; T47D.
What all share (assay): DTP human tumour cell line panel, 48 h

Take `CCCCCCOc1ccc(C(=O)NOCc2ccccc2)cc1`: the GI50 with A498 was > 100 µM (inactive); in the experiment with ACHN, > 100 µM (inactive); with EKVX, > 100 µM (inactive); in the experiment on HCT-116 it was > 100 µM (inactive); in the experiment with HCT-15, 63.8 µM; in the experiment on HT-29, > 100 µM (inactive). Besides, the GI50 is > 100 µM (inactive) in the experiment on Hs-578T; > 100 µM (inactive) in the experiment with IGROV-1; 79.6 µM (inactive) in the experiment on MOLT-4; > 100 µM (inactive) with NCI-H23; > 100 µM (inactive) with NCI-H460; > 100 µM (inactive) in the experiment with NCI/ADR-RES. In addition, the GI50 is > 100 µM (inactive) in the experiment with OVCAR-3; > 100 µM (inactive) with OVCAR-5; 42.2 µM (inactive) in the experiment on RPMI-8226; > 100 µM (inactive) with SF-295; > 100 µM (inactive) with SK-OV-3; > 100 µM (inactive) in the experiment on TK-10. Besides, the GI50 in the experiment with UACC-62 was > 100 µM (inactive).

For the compound `CN1C(=O)N(C)C(O)C(Cl)(Br)C1=O` (stereo not given), the GI50 with A498 was > 100 µM (inactive); with ACHN, > 100 µM (inactive); with EKVX, > 100 µM (inactive); with HCT-116 it was > 100 µM (inactive); in the experiment on HCT-15 it was > 100 µM; in the experiment on HT-29, > 100 µM (inactive). The GI50 in the experiment with Hs-578T, in the experiment on IGROV-1, with MOLT-4, with NCI-H23, with NCI-H460 and with NCI/ADR-RES was > 100 µM (inactive) throughout. In addition, the GI50 was > 100 µM (inactive) in the experiment on OVCAR-3; 0.182 µM (active) with OVCAR-5; > 100 µM (inactive) in the experiment on RPMI-8226; > 100 µM (inactive) in the experiment on SF-295; > 100 µM (inactive) in the experiment with SK-OV-3; > 100 µM (inactive) in the experiment on TK-10. Besides, in the experiment on UACC-62, the GI50 is > 100 µM (inactive).

As to `O=C1Oc2ccccc2C(=O)/C1=C/NC(=S)NCc1ccccc1`, the GI50 with ACHN was 25.1 µM (inactive); with EKVX, > 100 µM (inactive); with HCT-116, 53.8 µM (inactive); in the experiment on HCT-15, 49.5 µM; with HT-29, > 100 µM (inactive); in the experiment on IGROV-1 it was 38.8 µM (inactive). The GI50 in the experiment with MOLT-4 was 54.3 µM (inactive); in the experiment on NCI-H23, 36.2 µM (inactive); in the experiment with NCI-H460, 70 µM (inactive); in the experiment on NCI/ADR-RES, 66.1 µM (inactive); in the experiment on OVCAR-3, > 100 µM (inactive); in the experiment on OVCAR-5 it was > 100 µM (inactive). Besides, the GI50 in the experiment on SF-295 is 55.6 µM (inactive); with SK-OV-3, > 100 µM (inactive); in the experiment with T47D, 81.7 µM (inactive); with TK-10, 6.34 µM (inactive).

Take `NC(Cc1ccc(OCc2ccccc2)cn1)C(=O)O` (stereo not given): the GI50 was > 100 µM (inactive) in the experiment with A498; > 100 µM (inactive) in the experiment with ACHN; > 100 µM (inactive) with EKVX; > 100 µM (inactive) in the experiment on HCT-116; > 100 µM with HCT-15; > 100 µM (inactive) with HT-29. Also, the GI50 with Hs-578T, with IGROV-1, in the experiment with MOLT-4, in the experiment on NCI-H23, with NCI-H460 and in the experiment with NCI/ADR-RES was > 100 µM (inactive) each time. For the same compound, the GI50 in the experiment on OVCAR-3, in the experiment with OVCAR-5, with RPMI-8226, in the experiment on SF-295 and in the experiment with TK-10 was > 100 µM (inactive) each time.

As to `CN1C(=O)c2c(c3c4ccccc4n(C)c3c3c2c2ccccc2n3C)C1=O`, the GI50 is > 100 µM (inactive) in the experiment with A498; > 100 µM (inactive) in the experiment with ACHN; > 100 µM (inactive) in the experiment on EKVX; > 100 µM (inactive) in the experiment with HCT-116; > 100 µM in the experiment on HCT-15; > 100 µM (inactive) with HT-29. Moreover, the GI50 is > 100 µM (inactive) in the experiment on IGROV-1; > 100 µM (inactive) with MOLT-4; > 100 µM (inactive) in the experiment with NCI-H23; > 100 µM (inactive) in the experiment with NCI-H460; > 100 µM (inactive) with NCI/ADR-RES; 58.6 µM (inactive) with OVCAR-3. In addition, the GI50 in the experiment on OVCAR-5, in the experiment on RPMI-8226, in the experiment with SF-295, with SK-OV-3, in the experiment on T47D and in the experiment on TK-10 was > 100 µM (inactive) throughout. For the same compound, in the experiment with UACC-62, the GI50 is > 100 µM (inactive).

`O=C1CC(=O)N(C2CCCCC2)C(=O)N1c1ccccc1S(=O)(=O)Oc1ccccc1`: the GI50 was > 100 µM (inactive) in the experiment with A498; 19.1 µM (inactive) with ACHN; > 100 µM (inactive) in the experiment with EKVX; > 100 µM (inactive) in the experiment with HCT-116; > 100 µM in the experiment with HCT-15; > 100 µM (inactive) in the experiment on HT-29. In addition, the GI50 in the experiment with IGROV-1 is 14.9 µM (inactive); in the experiment on MOLT-4, 19.2 µM (inactive); in the experiment with NCI-H460 it was > 100 µM (inactive); in the experiment on NCI/ADR-RES it was > 100 µM (inactive); in the experiment with OVCAR-3, > 100 µM (inactive); in the experiment on OVCAR-5, > 100 µM (inactive). Moreover, the GI50 in the experiment on RPMI-8226 is 26.5 µM (inactive); with SF-295, > 100 µM (inactive); with SK-OV-3, > 100 µM (inactive); with T47D, 85.1 µM (inactive); in the experiment with TK-10 it was > 100 µM (inactive); in the experiment with UACC-62, > 100 µM (inactive).

Consider `COc1cccc(C(=O)O[C@H]2[C@@H]3[C@]4(OC(C)=O)CO[C@@H]4C[C@H](O)[C@@]3(C)C(=O)[C@H](OC(C)=O)C3=C(C)[C@@H](OC(=O)[C@H](O)[C@@H](NC(=O)OC(C)(C)C)c4ccco4)C[C@]2(O)C3(C)C)c1`, for which the GI50 with ACHN is 0.139 µM (active); with EKVX it was 0.173 µM (active); with HCT-116, < 0.00375 µM (active); with HCT-15 it was < 0.00375 µM; with HT-29, < 0.00375 µM (active); in the experiment with Hs-578T it was < 0.00375 µM (active). Besides, the GI50 in the experiment with IGROV-1 was < 0.00375 µM (active); with MOLT-4, < 0.00375 µM (active); with NCI-H23, 6.04 µM (inactive); in the experiment with NCI-H460 it was < 0.00375 µM (active); in the experiment with NCI/ADR-RES, 0.0107 µM (active); in the experiment with OVCAR-3, < 0.00375 µM (active). Further, the GI50 in the experiment with OVCAR-5 was 0.147 µM (active); with RPMI-8226, < 0.00375 µM (active); in the experiment on SF-295, < 0.00375 µM (active); in the experiment on SK-OV-3, < 0.00375 µM (active); in the experiment with TK-10, 0.00527 µM (active); in the experiment with UACC-62 it was 0.0442 µM (active).

On to `Nc1nc(O)c([I+]c2ccccc2)c(=O)[nH]1`, for which the GI50 with A498 is > 100 µM (inactive); in the experiment on ACHN it was > 100 µM (inactive); with EKVX it was > 100 µM (inactive); in the experiment on HCT-116, > 100 µM (inactive); with HCT-15, > 100 µM; in the experiment on HT-29, > 100 µM (inactive). In addition, the GI50 in the experiment on Hs-578T, in the experiment with IGROV-1, with MOLT-4, with NCI-H23, in the experiment on NCI-H460 and in the experiment with NCI/ADR-RES was > 100 µM (inactive) each time. For the same compound, the GI50 in the experiment on OVCAR-3, in the experiment with OVCAR-5, with RPMI-8226, with SF-295 and in the experiment with TK-10 was > 100 µM (inactive) in each case.

Regarding `CCOC(=O)c1sc2nc(SC)nc(Nc3ccc4c(c3)OCO4)c2c1N`, the GI50 was 28.4 µM (inactive) in the experiment on A498; 19.9 µM (inactive) in the experiment with ACHN; 31.9 µM (inactive) with EKVX; > 100 µM (inactive) with HCT-116; 0.706 µM with HCT-15; > 100 µM (inactive) with IGROV-1. Further, the GI50 was > 100 µM (inactive) in the experiment with MOLT-4; 53 µM (inactive) with NCI-H23; > 100 µM (inactive) with NCI-H460; 64.6 µM (inactive) in the experiment with NCI/ADR-RES; 37.4 µM (inactive) with OVCAR-3; > 100 µM (inactive) in the experiment on OVCAR-5. The GI50 in the experiment on RPMI-8226 is 53.8 µM (inactive); in the experiment on SF-295, 16 µM (inactive); in the experiment with T47D, 39.5 µM (inactive); in the experiment on TK-10, 30.9 µM (inactive); in the experiment with UACC-62, 25.1 µM (inactive).

As for `O=C(NS(=O)(=O)Nc1ccc(Cl)cc1)OCc1ccc(Cl)cc1Cl`, the GI50 in the experiment on A498 is 3.94 µM (inactive); in the experiment on ACHN, 38.5 µM (inactive); in the experiment with HCT-116 it was 20 µM (inactive); in the experiment with HCT-15, 34.3 µM; with HT-29, 20.5 µM (inactive); with Hs-578T it was 14.2 µM (inactive). The GI50 was 17.8 µM (inactive) with IGROV-1; 46.2 µM (inactive) with MOLT-4; 20.2 µM (inactive) in the experiment on NCI-H23; 13.4 µM (inactive) in the experiment on NCI-H460; 21.9 µM (inactive) in the experiment with NCI/ADR-RES; 17.7 µM (inactive) in the experiment on OVCAR-3. The GI50 in the experiment on OVCAR-5 was 24.2 µM (inactive); in the experiment on RPMI-8226, 54.5 µM (inactive); in the experiment on SF-295 it was 17.2 µM (inactive); in the experiment on SK-OV-3, 21.1 µM (inactive); in the experiment on TK-10, 16 µM (inactive); in the experiment on UACC-62 it was 14 µM (inactive).

`COc1ccc(NC(=O)CC/C(CC(=O)c2ccco2)=N/Nc2ccc([N+](=O)[O-])cc2[N+](=O)[O-])cc1`: the GI50 with A498 is > 100 µM (inactive); in the experiment on ACHN, > 100 µM (inactive); in the experiment on EKVX, > 100 µM (inactive); in the experiment on HCT-116 it was 76.2 µM (inactive); in the experiment with HCT-15 it was > 100 µM; with HT-29, 48 µM (inactive). The GI50 in the experiment with IGROV-1 is > 100 µM (inactive); with MOLT-4 it was 29.3 µM (inactive); in the experiment on NCI-H23, 14.3 µM (inactive); in the experiment with NCI-H460, > 100 µM (inactive); with OVCAR-3, 42.6 µM (inactive); in the experiment with OVCAR-5, > 100 µM (inactive). For the same compound, the GI50 in the experiment on RPMI-8226 is 17.1 µM (inactive); in the experiment on SF-295 it was 62.1 µM (inactive); in the experiment on SK-OV-3, > 100 µM (inactive); in the experiment on TK-10, > 100 µM (inactive); in the experiment on UACC-62, 34.4 µM (inactive).

Usually GI50 stands for the concentration at which growth is held to half of that of the control.
